Measured values reported in patent US10138212B2, “Aminoquinazoline compounds as A2A antagonist” (Merck Sharp & Dohme Corp., priority 2015, dated 2018).

How the values were obtained:
human A2a receptor = human A2a receptor (Homo sapiens (Human), UniProt P29274); assay: A2a competition binding assay using Scintillation Proximity technology
Protocol: (§1) Binding affinities of compounds of the invention for the human A2a receptor were determined in a competition binding assay using Scintillation Proximity technology. Thus, 1* μg, or preferably 0.25 μg of membranes from HEK293 cells expressing the human A2a receptor were incubated with a compound of the invention at concentrations ranging from 3000 nM to 0.15 nM in a reaction mixture containing also 0.5 nM of a tritiated form of 5-amino-7-[2-phenethyl]-2-(furan-2-yl)-7H-pyrazolo[4,3-e][1,2,4]triazolo[1,5-c]pyrimidine (the tritiated compound) and 25 μg of wheat germ agglutin-coated yttrium silicate SPA beads for one hour at room temperature with agitation. The beads were then allowed to settle to the bottom of the wells for 1 hr, after which the membrane-associated radioactivity was determined by scintillation counting in a TopCount microplate reader. Ki values were determined using the Cheng-Prusoff equation.
HEK293 cells expressing the human, rat, dog or monkey adenosine 2a receptor (Purchased from Perkin-Elmer # RBHA2AM400UA).
The Tritiated compound was prepared in-house by MRL Radiochemistry according to published methods.
Wheat germ agglutinin-coated yttrium silicate SPA beads (GE Healthcare #RPNQ0023). Dilute to 25 mg/ml in assay buffer.
Assay Buffer was prepared in house: Dulbecco's calcium and magnesium free phosphate buffered saline+10 mM MgCl2
Adenosine deaminase from calf intestine, 10 mg/2 ml (Roche #10 102 105 001).
A2a antagonist standard (9-chloro-1-(2-furanyl)-[1,2,4]triazolo1,5-c]quinazolin-5-amine from Tocris Bioscience)
Make eight 1:3 serial dilutions in 100% DMSO from a 3 mM compound stock
Transfer 50 nl of compound into a 384-well OptiPlate (Perkin Elmer).
Typically, final concentrations of compound used in the assay ranged from 3000 nM to 0.152 nM.
Dilute a solution of the Tritiated compound to 1.25 nM in assay buffer. This is a 2.5× solution. The final concentration in the assay is 0.5 nM. Calculate the concentration by counting two 5 μl aliquots.
Use *1 ug or preferrably 0.25 ug of membrane/well. Dilute membranes to 9.7 μg/ml in assay buffer. Treat with 20 ug/ml adenosine deaminase (ADA) for 15 minutes at room temperature to degrade endogenous adenosine.
Use 25 μg/well wheat germ agglutinin-coated yttrium silicate SPA beads.
Mix ADA-treated membranes and SPA beads together for 30 min prior to assay.
To the Perkin-Elmer Optiplate-384 containing the compound titration add 20 μl of 2.5× solution of the Tritiated compound and 30 μl of the membrane-bead mixture. Incubate for one hour at room temperature with agitation.
Include total binding (assay buffer+1% DMSO) and non-specific binding (CGS15943, 1 μM) wells.
Allow the beads to settle for one hour.
A curve fitting program (i.e., Prism, Activity Base, Chemcart) is used to determine the EC50. The Ki value is calculated using the Cheng-Prusoff equation. Ki=EC50/(1+(radioligand concentration/Kd))
Using the foregoing assay method, the Ki results were obtained using the compounds of the invention described in Tables IIIa, IIIb, and IV. Each example compound tested is reported in the following format: Example number: A2a Ki reported in nM. Thus, for example, the compound Ex-1 was determined to have an Ki using the above-described assay and calculations, of 10.0 nM.

human A1 receptor = human A1 receptor (Homo sapiens (Human), UniProt P30542); assay: A1 competition binding assay using Scintillation Proximity technology; selectivity = A1 binding Ki / A2a binding Ki; details: A1 binding Ki divided by A2a binding Ki
Protocol: as §1, with “A1” for “A2a”, “5” for “1* μg, or preferably 0.25 μg”, “CHO-K1” for “HEK293”, “0.7” for “0.5”, “8-Cyclopentyl-1,3-dipropylxanthine” for “5-amino-7-[2-phenethyl]-2-(furan-2-yl)-7H-pyrazolo[4,3-e][1,2,4]triazolo[1,5-c]pyrimidine”, “in a similar fashion described with A2a binding.” for “using the Cheng-Prusoff equation.”
• Cells expressing the human, rat, dog or monkey adenosine 1 receptor (Purchased from Perkin-Elmer # ES-010-M400UA • [^3H]DPCPX (purchased from Perkin-Elmer NET-974, 8-cyclopentyl-1,3-dipropylxanthine, [dipropyl-2,3-^3H(N)]. • Wheatgerm agglutinin-coated yttrium silicate SPA beads (Purchased from GE Healthcare #RPNQ0023). Dilute to 25 mg/ml in assay buffer. Store at 4° C. • Assay Buffer—Dulbecco's phosphate buffered saline without calcium and without magnesium+10 mM MgCl2 • Adenosine deaminase from calf intestine, 10 mg/2 ml (Roche #10 102 105 001). • DMSO • DPCPX (A1 antagonist) from Tocris Bioscience Compound Dilution • Dilute compounds to 1 mM in 100% DMSO
Make serial dilutions as necessary (i.e., 1:10, 1:3) in 100% DMSO.
Dilute 1:20 into assay buffer (i.e. 3 ul into 57 ul buffer). This is a 5× solution in 5% DMSO.
• Dilute [^3H]DPCPX to 1.75 nM in assay buffer. This is a 2.5× solution. The final concentration in the assay is 0.7 nM. Calculate the concentration by counting two 5 ul aliquots. Membrane Preparation • Use 5 ug of membrane/well. Dilute membranes to 250 ug/ml in assay buffer. Treat with 20 ug/ml adenosine deaminase (ADA) for 15 minutes at room temperature to degrade endogenous adenosine. Membrane-Bead Mixture • Use 25 ug/well wheatgerm agglutinin-coated yttrium silicate SPA beads • Mix ADA-treated membranes and SPA beads together for 30 min prior to assay. Assay Assembly • Add in order to a Perkin-Elmer Optiplate-384: 10 ul of 5× compound, 20 ul of 2.5× [^3H]DPCPX, 20 ul membrane-bead mixture. Incubate for one hour at room temperature with agitation. • Include total binding (assay buffer+1% DMSO) and non-specific binding (DPCPX, 1 uM) wells. Counting and Calculations

[1] = * assay run with 1 μg of membranes versus 0.25 μg, HEK293 cells expressing the human A2a receptor
[2] = 0.25 μg of membranes from HEK293 cells expressing the human A2a receptor

human A1 receptor, sequence (P30542 whole entry): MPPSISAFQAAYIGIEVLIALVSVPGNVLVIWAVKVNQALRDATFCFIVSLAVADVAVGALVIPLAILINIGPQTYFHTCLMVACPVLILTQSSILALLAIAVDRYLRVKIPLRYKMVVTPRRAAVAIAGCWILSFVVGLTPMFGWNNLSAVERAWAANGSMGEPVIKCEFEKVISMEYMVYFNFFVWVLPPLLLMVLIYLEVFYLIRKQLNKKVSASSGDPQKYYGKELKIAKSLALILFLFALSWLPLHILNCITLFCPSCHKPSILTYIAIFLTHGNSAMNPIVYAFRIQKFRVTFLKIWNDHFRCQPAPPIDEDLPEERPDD
human A2a receptor, sequence (P29274 whole entry): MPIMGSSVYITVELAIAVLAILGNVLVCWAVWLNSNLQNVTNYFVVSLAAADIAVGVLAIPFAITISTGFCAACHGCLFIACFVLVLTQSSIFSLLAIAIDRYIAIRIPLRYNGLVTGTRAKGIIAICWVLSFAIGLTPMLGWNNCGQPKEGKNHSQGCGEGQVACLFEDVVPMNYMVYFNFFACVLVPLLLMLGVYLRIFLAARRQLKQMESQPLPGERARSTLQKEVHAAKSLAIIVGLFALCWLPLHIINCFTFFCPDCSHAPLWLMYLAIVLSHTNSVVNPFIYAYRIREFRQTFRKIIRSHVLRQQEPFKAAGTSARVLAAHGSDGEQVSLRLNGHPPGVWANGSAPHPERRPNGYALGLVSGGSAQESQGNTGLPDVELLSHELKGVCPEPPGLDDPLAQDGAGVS

| Ki (human A2a receptor; [1]) [nM] | A2a selectivity (A2a A1 binding selectivity) (human A1 receptor) | Ki (human A2a receptor; [2]) [nM] | SMILES |
| --- | --- | --- | --- |
| 1.9 | 70 |  | [2H]C([2H])(NC(=O)c1nc(N)nc2c(OC)cccc12)c1cccc(C([2H])([2H])c2cccc(OCCOC)c2)n1 [Example 106, 2-amino-N-[dideuterio-[6-[dideuterio-[3-(2-methoxyethoxy)phenyl]methyl]-2-pyridyl]methyl]-8-methoxy-quinazoline-4-carboxamide] |
|  | 95 | 2 | [2H]C([2H])(NC(=O)c1nc(N)nc2c(OC)cccc12)c1cccc(C([2H])([2H])c2cncc(OCCOC)c2)n1 [Example 107, 2-amino-N-[dideuterio-[6-[dideuterio-[5-(2-methoxyethoxy)-3-pyridyl]methyl]-2-pyridyl]methyl]-8-methoxy-quinazoline-4-carboxamide] |
| 3.2 | 36 |  | COc1cccc2c(C(=O)NCc3cccc(CSc4ccc(F)cc4)n3)nc(N)nc12 [Example 55, 2-amino-N-[[6-[(4-fluorophenyl)sulfanyl-methyl]-2-pyridyl]methyl]-8-methoxy-quinazoline-4-carboxamide] |
|  | 33 | 225 | Cc1ccc(CCNC(=O)c2nc(N)nc3c(F)cccc23)nc1 [Example 73, 2-amino-8-fluoro-N-[2-(5-methyl-2-pyridyl)ethyl)quinazoline-4-carboxamide] |
|  | 297 | 0.5 | Nc1nc(C(=O)NCc2ccccc2-n2cccn2)c2cccc(F)c2n1 [Example 62, 2-amino-8-fluoro-N-[(2-pyrazol-1-ylphenyl)methyl]quinazoline-4-carboxamide] |
|  | 56 | 0.6 | CC(C)c1nc(CNC(=O)c2nc(N)nc3c(F)cccc23)cs1 [Example 82, 2-amino-8-fluoro-N-[(2-isopropylthiazol-4-yl)methyl]quinazoline-4-carboxamide] |
|  | 100 | 0.9 | COc1cccc2c(C(=O)NCc3cccn(C)c3=O)nc(N)nc12 [Example 61, 2-amino-8-methoxy-N-[(1-methyl-2-oxo-3-pyridyl)methyl]quinazoline-4-carboxamide] |

Continued, molecule first:

| SMILES | Ki (human A2a receptor; [1]) [nM] | A2a selectivity (A2a A1 binding selectivity) (human A1 receptor) | Ki (human A2a receptor; [2]) [nM] |
| --- | --- | --- | --- |
| [2H]C([2H])(NC(=O)c1nc(N)nc2c(F)cccc12)c1cccc(Oc2ccc(OCCOC)cc2)n1 [Example 59, 2-amino-N-[dideuterio-[6-[4-(2-methoxyethoxy)phenoxy]-2-pyridyl]methyl]-8-fluoro-quinazoline-4-carboxamide] | 3.7 | 32 |  |
| Nc1nc(C(=O)NCc2ncccn2)c2cccc(I)c2n1 [Example 99, 2-amino-8-iodo-N-(pyrimidin-2-ylmethyl)quinazoline-4-carboxamide] |  | 8 | 229 |
| Nc1nc(C(=O)NCC2CCN(c3ncc(F)cn3)CC2)c2cccc(F)c2n1 [Example 86, 2-amino-8-fluoro-N-[[1-(5-fluoropyrimidin-2-yl)-4-piperidyl]methyl]quinazoline-4-carboxamide] |  | 141 | 8 |
| Nc1nc(C(=O)NCc2cccc(Cc3ccccc3F)n2)c2cccc(F)c2n1 [Example 111, 2-amino-8-fluoro-N-[[6-[(2-fluorophenyl)methyl]-2-pyridyl]methyl]quinazoline-4-carboxamide] | 1.3 | 28 |  |
| COc1cccc2c(C(=O)NC3CCc4cccnc43)nc(N)nc12 (centres unmarked) [Example 32, 2-amino-N-(6,7-dihydro-5H-cyclopenta[b]pyridin-7-yl)-8-methoxy-quinazoline-4-carboxamide] |  | 370 | 1.8 |
| COc1cccc2c(C(=O)NCc3cccc(CSc4nc5ccccc5[nH]4)n3)nc(N)nc12 [Example 56, 2-amino-N-[[6-(1H-benzimidazol-2-ylsulfanylmethyl)-2-pyridyl]methyl]-8-methoxy-quinazoline-4-carboxamide] |  | 111 | 6.3 |
| CC(C)Oc1cccc(CNC(=O)c2nc(N)nc3c(F)cccc23)n1 [Example 78, 2-amino-8-fluoro-N-[(6-isoppropoxy-2-pyridyl)methyl]quinazoline-4-carboxamide] |  | 75 | 1 |
| [2H]C([2H])(NC(=O)c1nc(N)nc2c(OC)cccc12)c1cccc(C([2H])([2H])c2cncc(N3CCOCC3)c2)n1 [Example 110, 2-amino-N-[dideuterio-[6-[dideuterio-(5-morpholino-3-pyridyl)methyl]-2-pyridyl]methyl]-8-methoxy-quinazoline-4-carboxamide] | 2.5 | 64 |  |
| COc1cccc2c(C(=O)NCc3cccc(CO[C@H]4CCOC4)n3)nc(N)nc12 [Example 52, 2-amino-8-methoxy-N-[[6-[[(3S)-tetrahydrofuran-3-yl]oxymethyl]-2-pyridyl]methyl]quinazoline-4-carboxamide] |  | 140 | 1.1 |
| [2H]C([2H])(NC(=O)c1nc(N)nc2c(OC)cccc12)c1cccc(Oc2cncc(OC)c2)n1 [Example 58, 2-amino-N-[dideuterio-[6-[(5-methoxy-3-pyridyl)oxy]-2-pyridyl]methyl]-8-methoxy-quinazoline-4-carboxamide] | 5 | 16 |  |
| C[C@@H](NC(=O)c1nc(N)nc2c(F)cccc12)c1cccc2cccnc12 [Example 88, 2-amino-8-fluoro-N-[(1R)-1-(8-quinolyl)ethyl]quinazoline-4-carboxamide] |  | 8 | 6.7 |
| COc1cccc2c(C(=O)NCc3cccc(C)c3)nc(N)nc12 [Example 17, 2-amino-8-methoxy-N-(m-tolylmethyl)quinazoline-4-carboxamide] |  | 184 | 0.4 |
